In paper PMC6271041, “Synthesis and Biological Evaluation of Novel 2-Arylalkylthio-5-iodine-6-substituted-benzyl-pyrimidine-4(3H)-ones as Potent HIV-1 Non-Nucleoside Reverse Transcriptase Inhibitors” (Molecules, 2014):

Columns and labels:
HIV-1SF33 = assay: Inhibitory activity on HIV-1SF33 infection in TZM-bl cells (p24 ELISA); type: cell-based; conditions: Human immunodeficiency virus 1, 168 h, read-out: EC50 /SF33, concentration inhibiting 50% viral replication, HIV-1SF33 infection in TZM-bl cell line, 7 days
Description: TZM-bl cells, HIV-1SF33 were obtained from the NIH AIDS Research and Reference Reagent Program (Germantown, MD, USA). The inhibitory activity of the compounds on infection by a laboratory-adapted HIV-1 strain SF33 was tested in TZM-bl cells. Briefly, TZM-bl cells (4 × 10^4/well) were infected by addition of 200 TCID50 of HIV-1, followed by incubation for 2 h at 37 °C before addition of compounds at serial dilutions.

HIV-1 RT = molecular target: T1, HIV-1 RT (Human immunodeficiency virus type 1 group M subtype B, UniProt P04585); assay: Inhibitory activity against HIV-1 RT (biotin-dUTP incorporation, colorimetric); type: biochemical; conditions: for IC50: mean of three separate experiments, variation less than 15%
T1 construct: The biotin-dUTP was incorporated by reverse transcriptase (Sigma, St. Louis, MO, USA); purchased Sigma
Description: Oligo(dT) (TaKaRa Co., Otsu, Japan) was immobilized via its 5'-terminal phosphate to Covalink-NH microtiter plates (NUNC Co., Roskilde, Denmark). The biotin-dUTP was incorporated by reverse transcriptase (Sigma, St. Louis, MO, USA). Briefly, a serial concentration of inhibitor was added to the mixture, which contained 50 mmol/L Tris-HCl (pH 8.3), 3 mmol/L MgCl2, 75 mmol/L KCl, 5 mmol/L DTT, 0.13 mg/mL BSA, 10 μg/mL poly (A), 0.75 μM biotin-11-Dutp, 1.5 μM dTTP and HIV-1 RT. After incubation at 37 °C for 1h, washing buffer, which contained 50 mmol/L Tris-HCl (pH 7.5), 0.15 mol/L NaCl, 0.05 mmol/L MgCl2 and 0.02% Tween20, was used to wash the plate. Then each well of the plate was added […] 1% BSA and incubated at room temperature for another 30 min. The plate was washed with the same buffer for 3 times. Before further incubation at 37 °C for 1 h, 50 μL of alkaline phosphatase streptavidin (SA-ALP) solution (100 ng/mL) was added to each well and washed again as above. Finally, 50 μL of p-nitrophenyl phosphate, disodium (PNPP, 1 mg/mL, pH 9.5) was added and incubated at 37 °C for 30 min. 0.5 mol/L NaOH was added to stop the reaction and a colorimetric streptavidin-alkaline phosphatase reporter system was used to detect and quantify the result.

SMILES: Cc1ccnc2c1NC(=O)c1cccnc1N2C1CC1 [nevirapine, reference compound]
- EC50 (HIV-1SF33): 0.19 µM

SMILES: Cc1cc(C)cc(Cc2nc(SCCc3ccc([N+](=O)[O-])cc3)[nH]c(=O)c2I)c1 [8n, 2-(4-Nitrophenethylthio)-5-iodine-6-(3,5-dimethylbenzyl)uracil]
- melting point: 220 to 221 °C
- EC50 (HIV-1SF33): 3.84 µM
- fold more active compared to nevirapine (HIV-1 RT IC50) (HIV-1 RT): about 10 fold
- IC50 (HIV-1 RT): 0.7 µM

SMILES: Cc1cc(C)cc(Cc2nc(SCCOc3ccc([N+](=O)[O-])cc3)[nH]c(=O)c2I)c1 [8q]
- melting point: 215 to 218 °C
- EC50 (HIV-1SF33): 9.44 µM
- IC50 (HIV-1 RT): 1.31 µM

SMILES: O=c1[nH]c(SCCOc2ccc([N+](=O)[O-])cc2)nc(Cc2cc(F)cc(F)c2)c1I [8r, 2-(2-(4-Nitrophenoxy)ethylthio)-5-Iodine-6-(3,5-difluorobenzyl)uracil]
- melting point: 224 to 226 °C
- EC50 (HIV-1SF33): 4.1 µM
- IC50 (HIV-1 RT): 2.56 µM

SMILES: O=c1cc(Cc2cc(F)cc(F)c2)nc(SCCCOc2ccccc2)[nH]1 [7u, 2-(Phenoxypropylthio)-6-(3,5-difluorobenzyl)uracil]
- melting point: 100 to 101 °C
- IC50 (HIV-1 RT): 14.4 µM

SMILES: O=c1cc(Cc2ccccc2)nc(SCCOc2ccc([N+](=O)[O-])cc2)[nH]1 [7p, 2-(2-(4-Nitrophenoxy)ethylthio)-6-benzyluracil]
- melting point: 212 to 213 °C
- IC50 (HIV-1 RT): 4.58 µM

SMILES: Cc1cc(C)cc(Cc2cc(=O)[nH]c(SCc3ccc(C#N)cc3)n2)c1 [7e, 2-(4-Cyanobenzylthio)-6-(3,5-dimethylbenzyl)uracil]
- melting point: 193 to 196 °C
- IC50 (HIV-1 RT): 29.6 µM

SMILES: O=c1cc(Cc2ccccc2)nc(SCCc2ccc([N+](=O)[O-])cc2)[nH]1 [7m, 2-(4-Nitrophenethylthio)-6-benzyluracil]
- melting point: 200 to 204 °C
- IC50 (HIV-1 RT): 67.2 µM

SMILES: CC(=O)c1ccc(CSc2nc(Cc3cc(F)cc(F)c3)cc(=O)[nH]2)cc1 [7i, 2-(4-Acetylbenzylthio)-6-(3,5-difluorobenzyl)uracil]
- melting point: 251 to 254 °C
- IC50 (HIV-1 RT): 33.9 µM

SMILES: CC(=O)c1ccc(CSc2nc(Cc3cc(C)cc(C)c3)c(I)c(=O)[nH]2)cc1 [8h, 2-(4-Acetylbenzylthio)-5-iodine-6-(3,5-Dimethylbenzyl)uracil]
- melting point: 201 to 203 °C
- EC50 (HIV-1SF33): 1.06 µM
- fold more active compared to nevirapine (HIV-1 RT IC50) (HIV-1 RT): about 10 fold
- IC50 (HIV-1 RT): 0.41 µM

SMILES: Cc1cc(C)cc(Cc2cc(=O)[nH]c(SCOCc3ccccc3)n2)c1 [7w, 2-(Benzyloxymethylthio)-6-(3,5-dimethylbenzyl)uracil]
- melting point: 134 to 136 °C
- IC50 (HIV-1 RT): 1.82 µM

SMILES: O=c1[nH]c(SCc2ccc([N+](=O)[O-])cc2)nc(Cc2ccccc2)c1I [8a, 2-(4-Nitrobenzylthio)-5-iodine-6-benzyluracil]
- melting point: 207 to 210 °C
- IC50 (HIV-1 RT): 9.2 µM

SMILES: Cc1cc(C)cc(Cc2nc(SCCCOc3ccccc3)[nH]c(=O)c2I)c1 [8t, 2-(Phenoxypropylthio)-5-iodine-6-(3,5-dimethylbenzyl)uracil]
- melting point: 165 to 167 °C
- IC50 (HIV-1 RT): 12.9 µM

SMILES: Cc1cc(C)cc(Cc2cc(=O)[nH]c(SCCc3ccc([N+](=O)[O-])cc3)n2)c1 [7n, 2-(4-Nitrophenethylthio)-6-(3,5-dimethylbenzyl)uracil]
- melting point: 212 to 215 °C
- EC50 (HIV-1SF33): 6.12 µM
- IC50 (HIV-1 RT): 1.4 µM

SMILES: Cc1cc(C)cc(Cc2cc(=O)[nH]c(SCCOc3ccc([N+](=O)[O-])cc3)n2)c1 [7q, 2-(2-(4-Nitrophenoxy)ethylthio)-6-(3,5-dimethylbenzyl)uracil]
- melting point: 210 to 214 °C
- EC50 (HIV-1SF33): 5.07 µM
- IC50 (HIV-1 RT): 0.59 µM
